From the NIST ThermoML archive (doi:10.1016/j.jct.2016.08.005)
± gives the expanded uncertainty stated by the source.

Conditions: Liquid, Vibrating tube method

Cc1ccsc1 [3-methylthiophene]
Conditions	mass density [kg/m3]
283.15 K, 100 kPa	1031.82 ± 0.51
283.15 K, 2000 kPa	1033.26 ± 0.51
283.15 K, 5000 kPa	1035.47 ± 0.51
283.15 K, 7000 kPa	1036.93 ± 0.51
283.15 K, 10000 kPa	1039.07 ± 0.51
283.15 K, 15000 kPa	1042.56 ± 0.51
283.15 K, 20000 kPa	1045.93 ± 0.52
283.15 K, 25000 kPa	1049.2 ± 0.52
283.15 K, 30000 kPa	1052.37 ± 0.52
283.15 K, 35000 kPa	1055.46 ± 0.53
283.15 K, 40000 kPa	1058.46 ± 0.53
283.15 K, 45000 kPa	1061.37 ± 0.54
283.15 K, 50000 kPa	1064.22 ± 0.54
283.15 K, 55000 kPa	1066.97 ± 0.55
283.15 K, 60000 kPa	1069.67 ± 0.56
283.15 K, 65000 kPa	1072.32 ± 0.57
288.15 K, 100 kPa	1026.57 ± 0.51
288.15 K, 2000 kPa	1028.05 ± 0.51
288.15 K, 5000 kPa	1030.34 ± 0.51
288.15 K, 7000 kPa	1031.84 ± 0.51
288.15 K, 10000 kPa	1034.03 ± 0.51
288.15 K, 15000 kPa	1037.61 ± 0.51
288.15 K, 20000 kPa	1041.07 ± 0.51
288.15 K, 25000 kPa	1044.41 ± 0.52
288.15 K, 30000 kPa	1047.65 ± 0.52
288.15 K, 35000 kPa	1050.8 ± 0.52
288.15 K, 40000 kPa	1053.86 ± 0.53
288.15 K, 45000 kPa	1056.84 ± 0.53
288.15 K, 50000 kPa	1059.74 ± 0.54
288.15 K, 55000 kPa	1062.56 ± 0.55
288.15 K, 60000 kPa	1065.32 ± 0.56
288.15 K, 65000 kPa	1068.01 ± 0.56
293.15 K, 100 kPa	1021.31 ± 0.51
293.15 K, 2000 kPa	1022.81 ± 0.51
293.15 K, 5000 kPa	1025.16 ± 0.51
293.15 K, 7000 kPa	1026.7 ± 0.51
293.15 K, 10000 kPa	1028.95 ± 0.51
293.15 K, 15000 kPa	1032.61 ± 0.51
293.15 K, 20000 kPa	1036.16 ± 0.51
293.15 K, 25000 kPa	1039.6 ± 0.52
293.15 K, 30000 kPa	1042.92 ± 0.52
293.15 K, 35000 kPa	1046.15 ± 0.52
293.15 K, 40000 kPa	1049.27 ± 0.53
293.15 K, 45000 kPa	1052.31 ± 0.53
293.15 K, 50000 kPa	1055.28 ± 0.54
293.15 K, 55000 kPa	1058.15 ± 0.54
293.15 K, 60000 kPa	1060.96 ± 0.55
293.15 K, 65000 kPa	1063.7 ± 0.56
298.15 K, 100 kPa	1016 ± 0.51
298.15 K, 2000 kPa	1017.57 ± 0.51
298.15 K, 5000 kPa	1019.98 ± 0.51
298.15 K, 7000 kPa	1021.56 ± 0.51
298.15 K, 10000 kPa	1023.89 ± 0.51
298.15 K, 15000 kPa	1027.64 ± 0.51
298.15 K, 20000 kPa	1031.29 ± 0.51
298.15 K, 25000 kPa	1034.81 ± 0.51
298.15 K, 30000 kPa	1038.2 ± 0.52
298.15 K, 35000 kPa	1041.52 ± 0.52
298.15 K, 40000 kPa	1044.71 ± 0.52
298.15 K, 45000 kPa	1047.82 ± 0.53
298.15 K, 50000 kPa	1050.84 ± 0.53
298.15 K, 55000 kPa	1053.78 ± 0.54
298.15 K, 60000 kPa	1056.65 ± 0.55
298.15 K, 65000 kPa	1059.43 ± 0.55
303.15 K, 100 kPa	1010.72 ± 0.51
303.15 K, 2000 kPa	1012.32 ± 0.51
303.15 K, 5000 kPa	1014.81 ± 0.51
303.15 K, 7000 kPa	1016.43 ± 0.51
303.15 K, 10000 kPa	1018.83 ± 0.51
303.15 K, 15000 kPa	1022.7 ± 0.51
303.15 K, 20000 kPa	1026.42 ± 0.51
303.15 K, 25000 kPa	1030.01 ± 0.51
303.15 K, 30000 kPa	1033.5 ± 0.52
303.15 K, 35000 kPa	1036.87 ± 0.52
303.15 K, 40000 kPa	1040.16 ± 0.52
303.15 K, 45000 kPa	1043.34 ± 0.53
303.15 K, 50000 kPa	1046.42 ± 0.53
303.15 K, 55000 kPa	1049.41 ± 0.54
303.15 K, 60000 kPa	1052.33 ± 0.54
303.15 K, 65000 kPa	1055.16 ± 0.55
308.15 K, 100 kPa	1005.4 ± 0.51
308.15 K, 2000 kPa	1007.04 ± 0.51
308.15 K, 5000 kPa	1009.61 ± 0.51
308.15 K, 7000 kPa	1011.27 ± 0.51
308.15 K, 10000 kPa	1013.72 ± 0.51
308.15 K, 15000 kPa	1017.69 ± 0.51
308.15 K, 20000 kPa	1021.53 ± 0.51
308.15 K, 25000 kPa	1025.22 ± 0.51
308.15 K, 30000 kPa	1028.73 ± 0.51
308.15 K, 35000 kPa	1032.24 ± 0.52
308.15 K, 40000 kPa	1035.59 ± 0.52
308.15 K, 45000 kPa	1038.84 ± 0.52
308.15 K, 50000 kPa	1041.98 ± 0.53
308.15 K, 55000 kPa	1045.05 ± 0.53
308.15 K, 60000 kPa	1048.03 ± 0.54
308.15 K, 65000 kPa	1050.91 ± 0.54
313.15 K, 100 kPa	1000.05 ± 0.51
313.15 K, 2000 kPa	1001.76 ± 0.51
313.15 K, 5000 kPa	1004.39 ± 0.51
313.15 K, 7000 kPa	1006.11 ± 0.51
313.15 K, 10000 kPa	1008.64 ± 0.51
313.15 K, 15000 kPa	1012.71 ± 0.51
313.15 K, 20000 kPa	1016.63 ± 0.51
313.15 K, 25000 kPa	1020.43 ± 0.51
313.15 K, 30000 kPa	1024.08 ± 0.51
313.15 K, 35000 kPa	1027.61 ± 0.51
313.15 K, 40000 kPa	1031.05 ± 0.52
313.15 K, 45000 kPa	1034.35 ± 0.52
313.15 K, 50000 kPa	1037.58 ± 0.52
313.15 K, 55000 kPa	1040.71 ± 0.53
313.15 K, 60000 kPa	1043.73 ± 0.53
313.15 K, 65000 kPa	1046.69 ± 0.54
318.15 K, 100 kPa	994.7 ± 0.51
318.15 K, 2000 kPa	996.44 ± 0.51
318.15 K, 5000 kPa	999.15 ± 0.51
318.15 K, 7000 kPa	1000.93 ± 0.51
318.15 K, 10000 kPa	1003.52 ± 0.51
318.15 K, 15000 kPa	1007.7 ± 0.51
318.15 K, 20000 kPa	1011.74 ± 0.51
318.15 K, 25000 kPa	1015.6 ± 0.51
318.15 K, 30000 kPa	1019.35 ± 0.51
318.15 K, 35000 kPa	1022.99 ± 0.51
318.15 K, 40000 kPa	1026.48 ± 0.52
318.15 K, 45000 kPa	1029.86 ± 0.52
318.15 K, 50000 kPa	1033.15 ± 0.52
318.15 K, 55000 kPa	1036.33 ± 0.53
318.15 K, 60000 kPa	1039.44 ± 0.53
318.15 K, 65000 kPa	1042.45 ± 0.53
323.15 K, 100 kPa	989.3 ± 0.51
323.15 K, 2000 kPa	991.1 ± 0.51
323.15 K, 5000 kPa	993.9 ± 0.51
323.15 K, 7000 kPa	995.72 ± 0.51
323.15 K, 10000 kPa	998.41 ± 0.51
323.15 K, 15000 kPa	1002.71 ± 0.51
323.15 K, 20000 kPa	1006.85 ± 0.51
323.15 K, 25000 kPa	1010.83 ± 0.51
323.15 K, 30000 kPa	1014.66 ± 0.51
323.15 K, 35000 kPa	1018.35 ± 0.51
323.15 K, 40000 kPa	1021.93 ± 0.51
323.15 K, 45000 kPa	1025.4 ± 0.52
323.15 K, 50000 kPa	1028.76 ± 0.52
323.15 K, 55000 kPa	1032.03 ± 0.52
323.15 K, 60000 kPa	1035.18 ± 0.53
323.15 K, 65000 kPa	1038.24 ± 0.53
328.15 K, 100 kPa	983.88 ± 0.51
328.15 K, 2000 kPa	985.74 ± 0.51
328.15 K, 5000 kPa	988.63 ± 0.51
328.15 K, 7000 kPa	990.51 ± 0.51
328.15 K, 10000 kPa	993.26 ± 0.51
328.15 K, 15000 kPa	997.7 ± 0.51
328.15 K, 20000 kPa	1001.93 ± 0.51
328.15 K, 25000 kPa	1006 ± 0.51
328.15 K, 30000 kPa	1009.94 ± 0.51
328.15 K, 35000 kPa	1013.73 ± 0.51
328.15 K, 40000 kPa	1017.38 ± 0.51
328.15 K, 45000 kPa	1020.94 ± 0.51
328.15 K, 50000 kPa	1024.36 ± 0.52
328.15 K, 55000 kPa	1027.68 ± 0.52
328.15 K, 60000 kPa	1030.89 ± 0.52
328.15 K, 65000 kPa	1034.03 ± 0.53
333.15 K, 100 kPa	978.47 ± 0.51
333.15 K, 2000 kPa	980.39 ± 0.51
333.15 K, 5000 kPa	983.35 ± 0.51
333.15 K, 7000 kPa	985.3 ± 0.51
333.15 K, 10000 kPa	988.13 ± 0.51
333.15 K, 15000 kPa	992.67 ± 0.51
333.15 K, 20000 kPa	997.03 ± 0.51
333.15 K, 25000 kPa	1001.22 ± 0.51
333.15 K, 30000 kPa	1005.22 ± 0.51
333.15 K, 35000 kPa	1009.12 ± 0.51
333.15 K, 40000 kPa	1012.87 ± 0.51
333.15 K, 45000 kPa	1016.49 ± 0.51
333.15 K, 50000 kPa	1020 ± 0.51
333.15 K, 55000 kPa	1023.38 ± 0.52
333.15 K, 60000 kPa	1026.67 ± 0.52
333.15 K, 65000 kPa	1029.88 ± 0.52
338.15 K, 100 kPa	972.98 ± 0.51
338.15 K, 2000 kPa	974.96 ± 0.51
338.15 K, 5000 kPa	978.01 ± 0.51
338.15 K, 7000 kPa	980.02 ± 0.51
338.15 K, 10000 kPa	982.95 ± 0.51
338.15 K, 15000 kPa	987.63 ± 0.51
338.15 K, 20000 kPa	992.12 ± 0.51
338.15 K, 25000 kPa	996.41 ± 0.51
338.15 K, 30000 kPa	1000.53 ± 0.51
338.15 K, 35000 kPa	1004.49 ± 0.51
338.15 K, 40000 kPa	1008.33 ± 0.51
338.15 K, 45000 kPa	1012.04 ± 0.51
338.15 K, 50000 kPa	1015.62 ± 0.51
338.15 K, 55000 kPa	1019.08 ± 0.51
338.15 K, 60000 kPa	1022.44 ± 0.52
338.15 K, 65000 kPa	1025.7 ± 0.52
